For assay [1], the system named is THP-1 cells. Nature of the assay: Cell growth inhibition assay (CellTiter-Glo), THP-1. It counts as cell-based. Conditions: Homo sapiens, read-out: THP-1 TGI. In outline: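 Dose-response over 3-fold dilutions from 10 μM; 0.1% DMSO control. Endpoint: CellTiter-Glo ATP signal, background-subtracted and day 0-corrected.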
The target in assay [2] is nuclear BRD4-NUT foci in HCC2494 NUT midline carcinoma cells (Homo sapiens (Human), UniProt O60885+Q86Y26). The assay is described as follows: Nut-foci formation assay. It counts as cell-based. Conditions: 24 hours, read-out: HCS Brd4-NUT IC50. In outline:
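Read-out is number and intensity of nuclear NUT foci by immunofluorescence imaging, relative to 0.1% DMSO set as 100. Compounds were tested as 3-fold series starting at 10 μM on HCC2494 NUT midline carcinoma cells for 24 h. Four-parameter fitting gave IC50.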

As to `CCn1nc(C)c2c1C(=O)N(c1cc(C)c3nnc(C)n3c1)C2c1ccc(Cl)cc1` (stereo not shown) [Example 116, 4-(4-chlorophenyl)-5-(3,8-dimethyl-[1,2,4]triazolo[4,3-a]pyridin-6-yl)-1-ethyl-3-methyl-4,5-dihydropyrrolo[3,4-c]pyrazol-6(1H)-one], the IC (total growth inhibition) in assay [1] turned out to be 0.0354 µM. Moreover, the IC50 in assay [2] amounted to 27 nM.

`Cc1cc(N2C(=O)c3c(c(C4CC4)nn3-c3ccnn3C)C2c2ccc(Cl)cc2)cn2c(C)nnc12` (stereo not shown) [Example 117, 4-(4-chlorophenyl)-3-cyclopropyl-5-(3,8-dimethyl-[1,2,4]triazolo[4,3-a]pyridin-6-yl)-1-(1-methyl-1H-pyrazol-5-yl)-4,5-dihydropyrrolo[3,4-c]pyrazol-6(1H)-one]: the IC (total growth inhibition) in assay [1] was 0.0671 µM. The IC50 in assay [2] was 24.3 nM.

For `Cc1nn(-c2ccnn2C)c2c1[C@@H](c1ccc(Cl)cc1)N(c1cc(C)c(=O)n(C)c1)C2=O` [Example 120, (R)-4-(4-chlorophenyl)-5-(1,5-dimethyl-6-oxo-1,6-dihydropyridin-3-yl)-3-methyl-1-(1-methyl-1H-pyrazol-5-yl)-4,5-dihydropyrrolo[3,4-c]pyrazol-6(1H)-one], in assay [1], the IC (total growth inhibition) amounted to 0.165 µM. Moreover, in assay [2], the IC50 stood at 65.4 nM.

With `Cc1nn(-c2ccnn2C)c2c1[C@H](c1ccc(Cl)cc1)N(c1cc(C)c(=O)n(C)c1)C2=O` [Example 121, (S)-4-(4-chlorophenyl)-5-(1,5-dimethyl-6-oxo-1,6-dihydropyridin-3-yl)-3-methyl-1-(1-methyl-1H-pyrazol-5-yl)-4,5-dihydropyrrolo[3,4-c]pyrazol-6(1H)-one], the IC (total growth inhibition) in assay [1] stood at 5.03 µM. Besides, in assay [2], the IC50 was 6110 nM.

For `Cc1nn(C2CC2)c2c1[C@@H](c1ccc(Cl)cc1)N(c1cc(C)c3nnc(C)n3n1)C2=O` [Example 122, (R)-4-(4-chlorophenyl)-1-cyclopropyl-5-(3,8-dimethyl-[1,2,4]triazolo[4,3-b]-pyridazin-6-yl)-3-methyl-4,5-dihydropyrrolo[3,4-c]pyrazol-6(1H)-one], the IC (total growth inhibition) in assay [1] was 0.0107 µM. Further, the IC50 in assay [2] came out at 7.3 nM.

In the case of `Cc1nn(-c2ccnn2C)c2c1[C@H](c1ccc(Cl)cc1)N(c1cc(C)c3nnc(C)n3c1)C2=O` [Example 124, (S)-4-(4-chlorophenyl)-5-(3,8-dimethyl-[1,2,4]triazolo[4,3-a]pyridin-6-yl)-3-methyl-1-(1-methyl-1H-pyrazol-5-yl)-4,5-dihydropyrrolo[3,4-c]pyrazol-6(1H)-one], the IC (total growth inhibition) in assay [1] worked out at 1.54 µM. Moreover, the IC50 in assay [2] turned out to be 1730 nM.

As for `Cc1nn(-c2ccnn2C)c2c1[C@@H](c1ccc(Cl)cc1)N(c1cc(C)c3nnc(C)n3c1)C2=O` [Example 125, (R)-4-(4-chlorophenyl)-5-(3,8-dimethyl-[1,2,4]triazolo[4,3-a]pyridin-6-yl)-3-methyl-1-(1-methyl-1H-pyrazol-5-yl)-4,5-dihydropyrrolo[3,4-c]pyrazol-6(1H)-one], the IC (total growth inhibition) in assay [1] stood at 0.0473 µM. For the same molecule, the half-maximal inhibitory concentration (IC50) in assay [2] is 32.3 nM.

As to `CC(=O)Nc1cc(N2C(=O)c3c(c(C)nn3C3CC3)C2c2ccc(Cl)cc2)nn2c(C)nnc12` (stereo not shown) [Example 126, N-(6-(4-(4-chlorophenyl)-1-cyclopropyl-3-methyl-6-oxopyrrolo[3,4-c]pyrazol-5-(1H,4H,6H)-yl)-3-methyl-[1,2,4]triazolo[4,3-b]pyridazin-8-yl)acetamide], in assay [1], the IC (total growth inhibition) is 1.15 µM. The half-maximal inhibitory concentration (IC50) in assay [2] came out at 587 nM.

With `COc1ncccc1-n1nc(C)c2c1C(=O)N(c1cc(C)c(=O)n(C)c1)[C@H]2c1ccc(Cl)cc1` [Example 127, (S)-4-(4-chlorophenyl)-5-(1,5-dimethyl-6-oxo-1,6-dihydropyridin-3-yl)-1-(2-methoxypyridin-3-yl)-3-methyl-4,5-dihydropyrrolo[3,4-c]pyrazol-6(1H)-one], the IC (total growth inhibition) in assay [1] was over 10 µM. For the same molecule, the IC50 in assay [2] was over 10000 nM.

With `COc1ncccc1-n1nc(C)c2c1C(=O)N(c1cc(C)c(=O)n(C)c1)[C@@H]2c1ccc(Cl)cc1` [Example 128, (R)-4-(4-chlorophenyl)-5-(1,5-dimethyl-6-oxo-1,6-dihydropyridin-3-yl)-1-(2-methoxypyridin-3-yl)-3-methyl-4,5-dihydropyrrolo[3,4-c]pyrazol-6(1H)-one], the IC (total growth inhibition) in assay [1] was determined as 0.107 µM. Further, in assay [2], the IC50 stood at 53.3 nM.

As for `COCc1nn(C2CC2)c2c1C(c1ccc(Cl)cc1)N(c1cc(C)c3nnc(C)n3c1)C2=O` (stereo not shown) [Example 130, 4-(4-chlorophenyl)-1-cyclopropyl-5-(3,8-dimethyl-[1,2,4]triazolo[4,3-a]pyridin-6-yl)-3-(methoxymethyl)-4,5-dihydropyrrolo[3,4-c]pyrazol-6(1H)-one], the IC (total growth inhibition) in assay [1] was found to be 0.0813 µM. Moreover, the IC50 in assay [2] amounted to 13.9 nM.

As to `Cc1cc(N2C(=O)c3c(c(CO)nn3C3CC3)C2c2ccc(Cl)cc2)cn2c(C)nnc12` (stereo not shown) [Example 131, 4-(4-chlorophenyl)-1-cyclopropyl-5-(3,8-dimethyl-[1,2,4]triazolo[4,3-a]pyridin-6-yl)-3-(hydroxymethyl)-4,5-dihydropyrrolo[3,4-c]pyrazol-6(1H)-one], the IC (total growth inhibition) in assay [1] is 0.119 µM. Further, in assay [2], the half-maximal inhibitory concentration (IC50) stood at 27.7 nM.

Regarding `Cc1nn(C2COC2)c2c1C(c1ccc(Cl)cc1)N(c1cc(C)c(=O)n(C)c1)C2=O` (stereo not shown) [Example 135, 4-(4-chlorophenyl)-5-(1,5-dimethyl-6-oxo-1,6-dihydropyridin-3-yl)-3-methyl-1-(oxetan-3-yl)-4,5-dihydropyrrolo[3,4-c]pyrazol-6(1H)-one], the IC (total growth inhibition) in assay [1] amounted to 0.2 µM. Further, in assay [2], the IC50 is 93.4 nM.

`Cc1cc(N2C(=O)c3nn(C4COC4)c(C)c3C2c2ccc(Cl)cc2)cn2c(C)nnc12` (stereo not shown) [Example 136, 4-(4-chlorophenyl)-5-(3,8-dimethyl-[1,2,4]triazolo[4,3-a]pyridin-6-yl)-3-methyl-2-(oxetan-3-yl)-4,5-dihydropyrrolo[3,4-c]pyrazol-6(2H)-one]: the IC (total growth inhibition) in assay [1] turned out to be 0.186 µM. The IC50 in assay [2] worked out at 92.8 nM.

For `Cc1nn(C2COC2)c2c1C(c1ccc(Cl)cc1)N(c1cc(C)c3nnc(C)n3c1)C2=O` (stereo not shown) [Example 137, 4-(4-chlorophenyl)-5-(3,8-dimethyl-[1,2,4]triazolo[4,3-a]pyridin-6-yl)-3-methyl-1-(oxetan-3-yl)-4,5-dihydropyrrolo[3,4-c]pyrazol-6(1H)-one], the IC (total growth inhibition) in assay [1] was determined as 0.116 µM. In addition, in assay [2], the IC50 turned out to be 57.7 nM.

For `Cc1nn(C2CN(C)C2)c2c1C(c1ccc(Cl)cc1)N(c1cc(C)c(=O)n(C)c1)C2=O` (stereo not shown) [Example 140, 4-(4-chlorophenyl)-5-(1,5-dimethyl-6-oxo-1,6-dihydropyridin-3-yl)-3-methyl-1-(1-methylazetidin-3-yl)-4,5-dihydropyrrolo[3,4-c]pyrazol-6(1H)-one], in assay [1], the IC (total growth inhibition) was found to be 0.925 µM. The IC50 in assay [2] was found to be 435 nM.

`Cc1cc(N2C(=O)c3nn(C(=O)N(C)C)c(C)c3C2c2ccc(Cl)cc2)cn(C)c1=O` (stereo not shown) [Example 141, 4-(4-chlorophenyl)-5-(1,5-dimethyl-6-oxo-1,6-dihydropyridin-3-yl)-N,N,3-trimethyl-6-oxo-5,6-dihydropyrrolo[3,4-c]pyrazole-2(4H)-carboxamide]: the IC (total growth inhibition) in assay [1] was determined as 0.527 µM. For the same molecule, the IC50 in assay [2] came to 231 nM.

(Values after patent US8975417B2, “Pyrazolopyrrolidine derivatives and their use in the treatment of disease” (Novartis AG, priority 2013, dated 2015).)
